In patent publication US20260199484A1, “PROTAC DEGRADERS OF MLLT1 AND/OR MLLT3” (DARK BLUE THERAPEUTICS LTD, priority 2024, published 2026):
pIC50: −log10 of the molar value.

What was measured:
MLLT1 = target: T1, MLLT1 (Homo sapiens, UniProt Q03111); test: MLLT1 degradation assay in MV4-11 cells (JESS, 24 h); assay type: cell-based; design: endogenous in cells; host or cells: MV4-11 (ATCC CRL-9591); settings: vs DMSO control
T1 sequence (Q03111 1-559): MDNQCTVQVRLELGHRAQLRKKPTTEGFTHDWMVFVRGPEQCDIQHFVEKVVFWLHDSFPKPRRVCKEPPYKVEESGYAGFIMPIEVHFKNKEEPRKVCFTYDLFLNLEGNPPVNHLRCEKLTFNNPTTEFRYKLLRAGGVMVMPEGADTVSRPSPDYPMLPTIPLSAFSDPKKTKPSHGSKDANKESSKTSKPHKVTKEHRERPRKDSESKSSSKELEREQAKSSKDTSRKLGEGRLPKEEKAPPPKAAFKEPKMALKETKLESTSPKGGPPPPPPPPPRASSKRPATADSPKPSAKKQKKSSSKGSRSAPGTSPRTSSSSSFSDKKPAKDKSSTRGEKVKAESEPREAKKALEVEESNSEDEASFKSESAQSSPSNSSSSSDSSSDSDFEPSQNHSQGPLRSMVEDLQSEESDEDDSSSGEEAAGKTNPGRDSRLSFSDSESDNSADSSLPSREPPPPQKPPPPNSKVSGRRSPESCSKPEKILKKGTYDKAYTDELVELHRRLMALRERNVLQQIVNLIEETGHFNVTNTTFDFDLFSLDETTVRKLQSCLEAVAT
Outline: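 MV4-11 cells treated at 1000, 100 and 10 nM (0.1% DMSO) for 24 h at 37° C; lysates (4 ug protein) run on JESS capillary immunoassay with MLLT1 and GAPDH antibodies. Peak areas give % degradation versus DMSO, binned A (≥75%) to D (<25%).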

MV4-11 cells = test: MV4-11 cellular proliferative assay, Assay Format B (CTG 2.0, 168 h); assay type: cell-based; settings: Homo sapiens, Assay format B, 168 h, read-out: IC50 (MV4-11 cellular proliferative assay)
Method: MV4-11 cells at a confluency of ~50-80% was used for cell growth assay. 600 cells/well in a 384-well opaque cell culture plate (6007680; Perkin Elmer) were seeded in 40 μL of complete medium (IMDM+10% FBS+1× Penicillin-Streptomycin). Cells were incubated overnight at 37° C., 5% CO2. 10 mM DMSO stocks were prepared, cells were treated with 10 concentrations of test compounds starting from 1 uM or 100 nM, 3-fold dilution in 10 uL (5× concentration) of complete medium. Final DMSO concentration was 0.3%. Culture plates were centrifuged at 40×g, 30s. Cells were incubated with compounds for 168 h (7 days). After 7 days, 20 uL CTG 2.0 reagent (G9242; Promega) was added per well and luminescence reading was taken in Envision Xcite 2105 multimode plate reader. Data was analyzed in GraphPad Prism 10.0 and data was shown as % viability with respect to DMSO control and dose-response curves were generated using four parameter logistic regression. Assay quality was determined by z-factor calculation using positive and negative controls.

| SMILES | MLLT1% Degradation @ 0.01 μM (MLLT1) | MLLT1% Degradation @ 0.1 μM (MLLT1) | MLLT1% Degradation @ 1 μM (MLLT1) | pIC50 (MV4-11 cells) |
| --- | --- | --- | --- | --- |
| Cc1nn(CCCCCCCC=C(Cl)c2ccc3c(c2)n(C)c(=O)n3C2CCC(=O)NC2=O)c2cc(C(=O)Nc3cc4[nH]c([C@H]5CCCN5C)cc4cn3)ccc12 (mixture of isomers) [Example 40] | A (Category A: A≥75% degradation) | A (Category A: A≥75% degradation) | A (Category A: A≥75% degradation) | > 7.00 |
| Cc1nn(CCCCCCCC#Cc2cccc3c2CN([C@@H]2CCC(=O)NC2=O)C3=O)c2cc(C(=O)Nc3cc4[nH]c([C@H]5CCCN5C)c(Cl)c4cn3)ccc12 (relative stereo) [Example 101, N-(3-chloro-2-((R)-1-methylpyrrolidin-2-yl)-1H-pyrrolo[3,2-c]pyridin-6-yl)-1-(9-(2-((rel-R)-2,6-dioxopiperidin-3-yl)-1-oxoisoindolin-4-yl)non-8-yn-1-yl)-3-methyl-1H-indazole-6-carboxamide] | – | – | – | > 7.00 |
| Cc1nn(CC2CCN(c3cccc4c3CN(C3CCC(=O)NC3=O)C4=O)CC2)c2cc(C(=O)Nc3cc4[nH]c([C@H]5CCCN5C)cc4cn3)ccc12 (stereo in doubt) [Example 107, 1-((1-(2-((rel-S)-2,6-dioxopiperidin-3-yl)-1-oxoisoindolin-4-yl)piperidin-4-yl)methyl)-3-methyl-N-(2-((R)-1-methylpyrrolidin-2-yl)-1H-pyrrolo[3,2-c]pyridin-6-yl)-1H-indazole-6-carboxamide] | A (Category A: A≥75% degradation) | A (Category A: A≥75% degradation) | A (Category A: A≥75% degradation) | > 7.00 |
| Cc1nn(CCCCCC2CCN(c3cccc4c3CN(C3CCC(=O)NC3=O)C4=O)CC2)c2cc(C(=O)Nc3cc4[nH]c([C@H]5CCCN5C)cc4cn3)ccc12 (stereo partly drawn) [Example 105, 1-(5-(1-(2-(2,6-dioxopiperidin-3-yl)-1-oxoisoindolin-4-yl)piperidin-4-yl)pentyl)-3-methyl-N-(2-((R)-1-methylpyrrolidin-2-yl)-1H-pyrrolo[3,2-c]pyridin-6-yl)-1H-indazole-6-carboxamide] | B (Category B: 50%≤B<75% degradation) | A (Category A: A≥75% degradation) | A (Category A: A≥75% degradation) | > 7.00 |
| Cc1nn(CCCCCC2CCN(c3ccc4c(c3)C(=O)N(C3CCC(=O)NC3=O)C4=O)CC2)c2cc(C(=O)Nc3cc4[nH]c([C@H]5CCCN5C)cc4cn3)ccc12 (stereo partly drawn) [Example 109, 1-(5-(1-(2-(2,6-dioxopiperidin-3-yl)-1,3-dioxoisoindolin-5-yl)piperidin-4-yl)pentyl)-3-methyl-N-(2-((R)-1-methylpyrrolidin-2-yl)-1H-pyrrolo[3,2-c]pyridin-6-yl)-1H-indazole-6-carboxamide] | A (Category A: A≥75% degradation) | A (Category A: A≥75% degradation) | A (Category A: A≥75% degradation) | > 7.00 |
| Cc1nn(CCCCCCCC#Cc2cccc(C3CCC(=O)NC3=O)c2F)c2cc(C(=O)Nc3cc4[nH]c([C@H]5CCCN5C)cc4cn3)ccc12 (stereo partly drawn) [Example 61, 1-(9-(3-(2,6-dioxopiperidin-3-yl)-2-fluorophenyl)non-8-yn-1-yl)-3-methyl-N-(2-((R)-1-methylpyrrolidin-2-yl)-1H-pyrrolo [3,2-c]pyridin-6-yl)-1H-indazole-6-carboxamide] | C (Category C: 25%≤C<50% degradation) | A (Category A: A≥75% degradation) | A (Category A: A≥75% degradation) | > 7.00 |
| Cc1nn(CCCCCCCC#Cc2ccc(F)c3c2CN(C2CCC(=O)NC2=O)C3=O)c2cc(C(=O)Nc3cc4[nH]c([C@H]5CCCN5C)c(Cl)c4cn3)ccc12 (stereo partly drawn) [Example 67, N-(3-chloro-2-((R)-1-methylpyrrolidin-2-yl)-1H-pyrrolo[3,2-c]pyridin-6-yl)-1-(9-(2-(2,6-dioxopiperidin-3-yl)-7-fluoro-1-oxoisoindolin-4-yl)non-8-yn-1-yl)-3-methyl-1H-indazole-6-carboxamide] | A (Category A: A≥75% degradation) | A (Category A: A≥75% degradation) | A (Category A: A≥75% degradation) | > 7.00 |
| Cc1nn(C2CCN(CC3CCN(c4ccc5c(c4)C(=O)N(C4CCC(=O)NC4=O)C5=O)CC3)CC2)c2cc(C(=O)Nc3cc4[nH]c([C@H]5CCCN5C)cc4cn3)ccc12 (stereo partly drawn) [Example 70, 1-(1-((1-(2-(2,6-dioxopiperidin-3-yl)-1,3-dioxoisoindolin-5-yl)piperidin-4-yl)methyl)piperidin-4-yl)-3-methyl-N-(2-((R)-1-methylpyrrolidin-2-yl)-1H-pyrrolo[3,2-c]pyridin-6-yl)-1H-indazole-6-carboxamide] | A (Category A: A≥75% degradation) | A (Category A: A≥75% degradation) | A (Category A: A≥75% degradation) | > 7.00 |
| Cc1nn(C2CCN(CC3CCN(c4cccc5c4C(=O)N(C4CCC(=O)NC4=O)C5=O)CC3)CC2)c2cc(C(=O)Nc3cc4[nH]c([C@H]5CCCN5C)cc4cn3)ccc12 (stereo partly drawn) [Example 71, 1-(1-((1-(2-(2,6-dioxopiperidin-3-yl)-1,3-dioxoisoindolin-4-yl)piperidin-4-yl)methyl)piperidin-4-yl)-3-methyl-N-(2-((R)-1-methylpyrrolidin-2-yl)-1H-pyrrolo[3,2-c]pyridin-6-yl)-1H-indazole-6-carboxamide] | B (Category B: 50%≤B<75% degradation) | A (Category A: A≥75% degradation) | A (Category A: A≥75% degradation) | > 7.00 |
| Cc1nn(CCCCCCCC#Cc2cccc3c2CN(C2CCC(=O)NC2=O)C3=O)c2cc(C(=O)Nc3cc4[nH]c([C@H]5CCCN5C)c(Cl)c4cn3)ccc12 (stereo partly drawn) [Example 53, N-(3-chloro-2-((R)-1-methylpyrrolidin-2-yl)-1H-pyrrolo[3,2-c]pyridin-6-yl)-1-(9-(2-(2,6-dioxopiperidin-3-yl)-1-oxoisoindolin-4-yl)non-8-yn-1-yl)-3-methyl-1H-indazole-6-carboxamide] | A (Category A: A≥75% degradation) | A (Category A: A≥75% degradation) | A (Category A: A≥75% degradation) | > 7.00 |
| CN1CCC[C@@H]1c1cc2cnc(NC(=O)c3ccc4cnn(CCCCCCCC#Cc5cccc6c5CN(C5CCC(=O)NC5=O)C6=O)c4c3)cc2[nH]1 (stereo partly drawn) [Example 55, 1-(9-(2-(2,6-dioxopiperidin-3-yl)-1-oxoisoindolin-4-yl)non-8-yn-1-yl)-N-(2-((R)-1-methylpyrrolidin-2-yl)-1H-pyrrol[3,2-c]pyridin-6-yl)-1H-indazole-6-carboxamide] | B (Category B: 50%≤B<75% degradation) | A (Category A: A≥75% degradation) | A (Category A: A≥75% degradation) | > 7.00 |
| Cc1nn(C2CCN(CC#Cc3cccc4c3CN(C3CCC(=O)NC3=O)C4=O)CC2)c2cc(C(=O)Nc3cc4[nH]c([C@H]5CCCN5C)cc4cn3)ccc12 (stereo partly drawn) [Example 68, 1-(1-(3-(2-(2,6-dioxopiperidin-3-yl)-1-oxoisoindolin-4-yl)prop-2-yn-1-yl)piperidin-4-yl)-3-methyl-N-(2-((R)-1-methylpyrrolidin-2-yl)-1H-pyrrolo[3,2-c]pyridin-6-yl)-1H-indazole-6-carboxamide] | A (Category A: A≥75% degradation) | A (Category A: A≥75% degradation) | B (Category B: 50%≤B<75% degradation) | > 7.00 |
| Cc1nn(CCCCCCCC#Cc2cccc3c2CN([C@H]2CCC(=O)NC2=O)C3=O)c2cc(C(=O)Nc3cc4[nH]c([C@H]5CCCN5C)c(Cl)c4cn3)ccc12 (relative stereo) [Example 100, N-(3-chloro-2-((R)-1-methylpyrrolidin-2-yl)-1H-pyrrolo[3,2-c]pyridin-6-yl)-1-(9-(2-((rel-S)-2,6-dioxopiperidin-3-yl)-1-oxoisoindolin-4-yl)non-8-yn-1-yl)-3-methyl-1H-indazole-6-carboxamide] | – | – | – | > 7.00 |
